Series [1] concerns the target T1, Mrs2 (Mus musculus, UniProt Q5NCE8).
T1 construct: endogenous in cells; host or cells: primary murine hepatocytes (C57BL/6J mice)
T1 sequence (Q5NCE8 54-434): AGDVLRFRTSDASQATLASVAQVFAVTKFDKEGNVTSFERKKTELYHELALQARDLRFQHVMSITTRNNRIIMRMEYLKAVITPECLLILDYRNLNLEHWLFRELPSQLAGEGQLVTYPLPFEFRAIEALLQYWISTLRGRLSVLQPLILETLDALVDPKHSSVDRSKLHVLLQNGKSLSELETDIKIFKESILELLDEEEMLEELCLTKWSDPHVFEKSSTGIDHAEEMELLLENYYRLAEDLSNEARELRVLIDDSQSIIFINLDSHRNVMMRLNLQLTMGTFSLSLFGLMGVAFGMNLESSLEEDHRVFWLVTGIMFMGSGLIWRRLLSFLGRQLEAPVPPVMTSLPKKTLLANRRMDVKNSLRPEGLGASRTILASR
As to the kind of experiment: Mrs2-mediated mMg2+ uptake in digitonin permeabilized hepatocytes (Mag-Green, extramitochondrial Mg2+ clearance). In kind it is cell-based, murine. Particulars: permeabilized cell system. The protocol: (§1) Bacterial CorA forms a pentameric complex that selectively drives Mg2+ uptake in an electrogenic manner. […] Mrs2 is the eukaryotic homologue of CorA and contains two transmembrane domains with a well-conserved F/Y-G-M-N motif; therefore, CorA blockers were tested to determine if they alter Mrs2-mediated mMg^2+ uptake (Moomaw and Maguire, 2008). Digitonin permeabilized hepatocytes were utilized to measure the inhibitory effect and determine its IC50. Permeabilized cells were treated with CPACC followed by a 1 mM bolus of MgCl2 (FIG. 10B). A 1 mM Mg^2+ bolus was added after baseline recording, and the extramitochondrial Mg^2+ clearance was used as a read-out for Mrs2-mediated mMg^2+ uptake using Mag-Green as a Mg^2+ indicator. […] We next investigated Mrs2 inhibition in intact hepatocytes loaded with Mag-Green-AM. […] Next CPACC was examined to determine if it had any effect on MCU-mediated mCa^2+ uptake in permeabilized cells. […] The availability of the compound to intact cells was measured using graphite furnace atomic absorption spectroscopy (GFAAS) and bicinchoninic acid in parallel.
Spectrofluorimetric measurement of mitochondrial Mg^2+ and Ca^2+ dynamics and citrate mediated MagGreen fluorescence quenching. Fluorescence measurements were conducted in a multiwavelength excitation dual wavelength emission spectrofluorometer (Delta RAM, PTI, HORIBA). […]

For series [2], the target named is T1, Mrs2. In words: Mrs2 inhibition in intact hepatocytes loaded with Mag-Green-AM, confocal, L-lactate stimulation. The format is cell-based, murine. The protocol: as §1, with “parallel. […] Encouraged by the potent inhibitory effect of CPACC and cellular permeability, we next measured the cytotoxicity of CPACC in cells. […]” for “parallel.”
Evaluation of dose dependent Mrs2 inhibition by confocal live cell imaging system. […] Data was quantified using Leica Application Suite X.

Series [3] relates to HIF-1α. The text has this: HIF-1α is stabilized in Mrs2−/− mice. To examine the intrinsic role of Mrs2, Mrs2^−/− mice were challenged to LPS-induced inflammatory response. It was noticed that there was a barely detectable HIF-1α stabilization in control but a significant HIF-1α protein accumulation following LPS stimulation in Mrs2^−/− hepatocytes (Daw et al., 2020). […] It was envisioned that loss of Mrs2 in hepatocyte mitochondria might control metabolite fluxes that regulates HIF-1α stability under normoxic conditions. HIF-1α is the most commonly studied transcription factor that responds to oxygen tension and its stabilization controls numerous metabolic cascades, including glycolysis and oxidative phosphorylation (Kaelin and Ratcliffe, 2008; Lum et al., 2007; Semenza, 2013). A targeted metabolite screen was conducted to identify whether these metabolites potentially altered in Mrs2^−/− control HIF-1α stabilization. WT hepatocytes were treated with the PHD inhibitor FG-4952 for 6 hours in the presence or absence of metabolites (Buckley et al., 2012). […] Next it was explored whether citric acid mediated HIF-1α destabilization is a hydroxylation dependent mechanism by reconstitution of hydroxylation-dead mutant HIF-1α in COS-7 cells (Yan et al., 2007). […] Next tested the potency of citric acid and sodium citrate was tested. Hepatocytes isolated from WT or Mrs2^−/− mice were treated for 6 hours. HIF-1α stabilization was less affected by di- or tri-sodium citrate than by citric acid (FIG. 9G). […] The citric acid-mediated HIF-1α destabilization was intact in multiple chemical modalities (FIG. 9H) and the intracellular chelation of Mg^2+ ions suppressed FG-4952-induced HIF-1α stabilization (FIG. 9I). […] Furthermore, COS-7 cells were more sensitive to the HIF-1α stabilizing effect compared to hepatocytes. […] Next HIF-1α abundance was tested in liver tissues harvested from dietary cohorts. HIF-1α protein expression/stabilization was prominent in both Mrs2^−/− and Mrs2^−/− WD, whereas HIF-1α protein was nearly completely absent in WT WD (FIG. 9M). This supports the elevation of HIF-1α protein level as a key mechanism driving transcription changes in Mrs2^−/− WD livers.
Immunoblotting. Crushed tissues were homogenized in lysis buffer (ThermoFisher) on ice for one minute (20-30 strokes) using an automatic Dounce homogenizer set to 2000 RPM. Whole cell lysate was prepared in lysis buffer (Abcam) using 3 sets of 3-second sonication (power level 3) intervals on ice. Protein concentration was estimated using Pierce BCA assay kit and samples were prepared and heated for 90° C. for 5 minutes. Equal amounts of protein were loaded and separated on 4%-12% Bis-Tris polyacrylamide gel (Thermo Fisher Scientific), transferred to a PVDF membrane, blocked for 1-2 h using 5% fat free skim milk, washed and finally, probed with corresponding antibodies as specified below. Antibodies were from Cell Signaling Technology (HIF-1α and Hydroxy HIF-1α dilution 1:3000, MCU dilution 1.5000, MICU1 dilution 1:3000), Abcam Abcam (CPT-1a, CPT-2, OXPHOS cocktail dilution 1:3000), ZYMED Laboratories (β-actin; dilution 1:1,000), and Amersham (secondary antibodies conjugated with peroxidase). Development was done using X-ray film using a series of timed exposures and Image J was used for densitometric analysis on scanned film images.

The test system of series [4] is HIF-1α. In words: HIF-1α stabilization in COS-7 cells. The format is cell-based. From the text: HIF-1α is stabilized in Mrs2−/− mice. To examine the intrinsic role of Mrs2, Mrs2^−/− mice were challenged to LPS-induced inflammatory response. It was noticed that there was a barely detectable HIF-1α stabilization in control but a significant HIF-1α protein accumulation following LPS stimulation in Mrs2^−/− hepatocytes (Daw et al., 2020). […] It was envisioned that loss of Mrs2 in hepatocyte mitochondria might control metabolite fluxes that regulates HIF-1α stability under normoxic conditions. HIF-1α is the most commonly studied transcription factor that responds to oxygen tension and its stabilization controls numerous metabolic cascades, including glycolysis and oxidative phosphorylation (Kaelin and Ratcliffe, 2008; Lum et al., 2007; Semenza, 2013). A targeted metabolite screen was conducted to identify whether these metabolites potentially altered in Mrs2^−/− control HIF-1α stabilization. WT hepatocytes were treated with the PHD inhibitor FG-4952 for 6 hours in the presence or absence of metabolites (Buckley et al., 2012). […] Next it was explored whether citric acid mediated HIF-1α destabilization is a hydroxylation dependent mechanism by reconstitution of hydroxylation-dead mutant HIF-1α in COS-7 cells (Yan et al., 2007). […] Next tested the potency of citric acid and sodium citrate was tested. Hepatocytes isolated from WT or Mrs2^−/− mice were treated for 6 hours. […]

Series [5] deals with HIF-1α. In words: HIF-1α stabilization in human kidney cell line (HK-2). To be noted: HK-2 treated with CoCl2, metabolites 6 hours. The format is cell-based.

With `N.N.N.N.N.N.[Cl-].[Cl-].[Cl-].[Co+3]` [cobalt(III)hexaammine, Hexaamminecobalt (III) chloride, reference compound], on Mrs2 [1], the “inhibitory effect on Mrs2 activity” value was “limited inhibition”. Further, the “effect on Mrs2 in intact hepatocytes” value at Mrs2 [2] was “absent”.
In the case of `O=C(O)CC(O)(CC(=O)O)C(=O)O` [citric acid], the “response of hepatocytes from Mrs2^−/− mice to the destabilizing effect” value with HIF-1α [3] is “partially resistant”. Besides, the “HIF-1α destabilizing effect in homogenate” value in the series with HIF-1α [3] (FG-4592 treated WT hepatocyte homogenate) is reported as “partly maintained”. Further, the “time course of HIF-1α destabilization” value in the series with HIF-1α [3] (FG-4592 treated hepatocytes) was “very rapid and robust”. In addition, the “effect on HIF-1α stabilized by PHD inhibitor” value in the series with HIF-1α [3] (WT hepatocytes, FG-4952, 6 hours) is “destabilized HIF-1α”. Further, the “concentration at which HIF-1α destabilization was observed” value in the series on HIF-1α [3] (WT hepatocytes, PHD inhibitor, 6 hours) is at least 6 mM. In the series on HIF-1α [4], the “constitutively stabilized (hydroxylation-dead) HIF-1α mutant” value is on record as “unaffected”. For the same compound, the “FG-4592 dependent HIF-1α stabilization” value in the series with HIF-1α [4] (10 mM) is reported as “completely blunted”. In addition, the HIF-1α destabilizing activity entry in the series on HIF-1α [5] is “replicates the observations in hepatocytes”.

These data come from patent publication US20240415878A1, “Compositions and Methods for Modulating Mitochondrial Function” (Board of Regents, The University of Texas System, priority 2021, published 2024).
